Source: article PMC8398766, “Do Small Molecules Activate the TrkB Receptor in the Same Manner as BDNF? Limitations of Published TrkB Low Molecular Agonists and Screening for Novel TrkB Orthosteric Agonists” (Pharmaceuticals, 2021)

Columns and labels:
in vitro = conditions: human, microsomes
MMP-2 = biological target: T1, MMP-2 (Homo sapiens, UniProt P08253); assay: BioPrint Profile Panel; type: biochemical; conditions: Non-Kinase Enzyme
T1 construct: purchased Eurofins Discovery (Cerep) BioPrint Profile Panel
T1 sequence (P08253 110-660): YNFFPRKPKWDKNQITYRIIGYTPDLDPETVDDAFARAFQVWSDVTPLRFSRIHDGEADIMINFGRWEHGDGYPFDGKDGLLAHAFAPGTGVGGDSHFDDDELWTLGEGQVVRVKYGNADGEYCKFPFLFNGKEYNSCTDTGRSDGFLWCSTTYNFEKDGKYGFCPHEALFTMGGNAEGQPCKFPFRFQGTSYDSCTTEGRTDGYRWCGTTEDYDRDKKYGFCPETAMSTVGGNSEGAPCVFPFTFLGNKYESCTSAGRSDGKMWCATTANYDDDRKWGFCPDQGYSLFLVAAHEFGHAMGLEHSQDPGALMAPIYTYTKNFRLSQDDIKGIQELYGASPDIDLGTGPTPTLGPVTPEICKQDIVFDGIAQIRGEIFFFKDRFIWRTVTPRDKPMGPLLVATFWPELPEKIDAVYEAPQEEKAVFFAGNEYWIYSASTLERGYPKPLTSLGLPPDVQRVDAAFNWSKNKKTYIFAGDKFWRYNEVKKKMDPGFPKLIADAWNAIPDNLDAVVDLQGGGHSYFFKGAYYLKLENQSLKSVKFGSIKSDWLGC
Source text: (§1) The BioPrint® Profile Panel service offered by Eurofins Discovery (Poitiers, France) was chosen to perform selectivity analysis.

MMP-1 = biological target: T2, MMP-1 (Homo sapiens, UniProt P03956); assay: BioPrint Profile Panel; type: biochemical; conditions: Non-Kinase Enzyme, read-out: % of specific inhibition
T2 construct: purchased Eurofins Discovery (Cerep) BioPrint Profile Panel
T2 sequence (P03956 100-469): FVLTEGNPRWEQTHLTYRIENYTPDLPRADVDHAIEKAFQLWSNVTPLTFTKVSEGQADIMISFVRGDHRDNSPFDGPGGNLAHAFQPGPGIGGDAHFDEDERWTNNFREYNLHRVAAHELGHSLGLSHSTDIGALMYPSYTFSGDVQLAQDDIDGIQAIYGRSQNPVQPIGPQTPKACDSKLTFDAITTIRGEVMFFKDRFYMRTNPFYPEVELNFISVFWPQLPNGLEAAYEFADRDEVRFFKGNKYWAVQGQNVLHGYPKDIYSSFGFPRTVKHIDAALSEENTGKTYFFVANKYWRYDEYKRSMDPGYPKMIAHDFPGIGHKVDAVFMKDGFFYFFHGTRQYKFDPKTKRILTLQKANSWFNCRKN
Source text: as §1

ACE-2 = biological target: T3, ACE-2 (Homo sapiens, UniProt Q9BYF1); assay: BioPrint Profile Panel; type: biochemical; conditions: Non-Kinase Enzyme, read-out: % of specific inhibition
T3 construct: purchased Eurofins Discovery (Cerep) BioPrint Profile Panel
Source text: as §1

COX2 = biological target: T4, COX2 (Homo sapiens, UniProt P35354); assay: BioPrint Profile Panel; type: biochemical; conditions: Non-Kinase Enzyme
T4 construct: purchased Eurofins Discovery (Cerep) BioPrint Profile Panel
T4 sequence (P35354 18-604): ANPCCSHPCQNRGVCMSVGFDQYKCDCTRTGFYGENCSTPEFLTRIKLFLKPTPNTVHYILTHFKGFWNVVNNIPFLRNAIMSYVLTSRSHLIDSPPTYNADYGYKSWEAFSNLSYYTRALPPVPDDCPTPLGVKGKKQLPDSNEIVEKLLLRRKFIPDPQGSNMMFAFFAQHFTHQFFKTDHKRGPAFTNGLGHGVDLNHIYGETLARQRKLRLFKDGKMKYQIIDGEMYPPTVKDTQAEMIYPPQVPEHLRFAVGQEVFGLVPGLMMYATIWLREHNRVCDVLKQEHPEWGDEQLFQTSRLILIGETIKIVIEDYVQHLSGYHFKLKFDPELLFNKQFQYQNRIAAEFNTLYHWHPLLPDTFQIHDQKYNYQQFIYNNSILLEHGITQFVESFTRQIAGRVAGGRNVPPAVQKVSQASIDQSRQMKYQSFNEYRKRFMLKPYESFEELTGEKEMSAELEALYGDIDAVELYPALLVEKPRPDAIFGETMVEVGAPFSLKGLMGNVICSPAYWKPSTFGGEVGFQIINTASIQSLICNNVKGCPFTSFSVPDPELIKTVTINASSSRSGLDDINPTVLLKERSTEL
Source text: as §1

IRK = biological target: T5, IRK (Homo sapiens, UniProt P06213); assay: BioPrint Profile Panel; type: biochemical; conditions: Kinase, read-out: % of specific inhibition
T5 construct: purchased Eurofins Discovery (Cerep) BioPrint Profile Panel
Source text: as §1

ACE = biological target: T6, ACE (Homo sapiens, UniProt P12821); assay: BioPrint Profile Panel; type: biochemical; conditions: Non-Kinase Enzyme, read-out: % of specific inhibition
T6 construct: purchased Eurofins Discovery (Cerep) BioPrint Profile Panel
Source text: as §1

ERK2 = biological target: T7, ERK2 (Homo sapiens, UniProt P28482); assay: BioPrint Profile Panel; type: biochemical; conditions: Kinase, read-out: % of specific inhibition
T7 construct: purchased Eurofins Discovery (Cerep) BioPrint Profile Panel
T7 sequence (P28482 whole entry): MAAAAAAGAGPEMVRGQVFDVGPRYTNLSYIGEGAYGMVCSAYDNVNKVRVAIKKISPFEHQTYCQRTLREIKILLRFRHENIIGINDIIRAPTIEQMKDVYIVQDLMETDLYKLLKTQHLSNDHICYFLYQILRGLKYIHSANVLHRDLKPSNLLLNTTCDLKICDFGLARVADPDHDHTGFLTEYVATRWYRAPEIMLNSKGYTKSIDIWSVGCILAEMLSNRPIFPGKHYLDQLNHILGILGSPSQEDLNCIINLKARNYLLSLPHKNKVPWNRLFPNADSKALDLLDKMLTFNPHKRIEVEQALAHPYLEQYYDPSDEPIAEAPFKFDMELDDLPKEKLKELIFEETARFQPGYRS
Source text: as §1

PDE6 = assay: BioPrint Profile Panel; type: biochemical; conditions: 10 μM; Non-Kinase Enzyme
Source text: as §1

CDK2 = biological target: T8, CDK2 (Homo sapiens, UniProt P24941); assay: BioPrint Profile Panel; type: biochemical; conditions: Kinase, read-out: % of specific inhibition
T8 construct: purchased Eurofins Discovery (Cerep) BioPrint Profile Panel
Source text: as §1

Abl kinase = biological target: T9, Abl kinase (Homo sapiens, UniProt P00519); assay: BioPrint Profile Panel; type: biochemical; conditions: read-out: % of specific inhibition
T9 construct: purchased Eurofins Discovery (Cerep) BioPrint Profile Panel
Source text: as §1

p38α kinase = biological target: T10, p38α kinase (Homo sapiens, UniProt Q16539); assay: BioPrint Profile Panel; type: biochemical; conditions: read-out: % of specific inhibition
T10 construct: purchased Eurofins Discovery (Cerep) BioPrint Profile Panel
Source text: as §1

PDE4D2 = biological target: T11, PDE4D2 (Homo sapiens, UniProt Q08499); assay: BioPrint Profile Panel; type: biochemical; conditions: Non-Kinase Enzyme, read-out: % of specific inhibition
T11 construct: purchased Eurofins Discovery (Cerep) BioPrint Profile Panel
Source text: as §1

FLT-1 kinase = biological target: T12, FLT-1 kinase (Homo sapiens, UniProt P17948); assay: BioPrint Profile Panel; type: biochemical; conditions: read-out: % of specific inhibition
T12 construct: purchased Eurofins Discovery (Cerep) BioPrint Profile Panel
Source text: as §1

acetylcholinesterase = biological target: T13, acetylcholinesterase (Homo sapiens, UniProt P22303); assay: BioPrint Profile Panel; type: biochemical; conditions: Non-Kinase Enzyme, read-out: % of specific inhibition
T13 construct: purchased Eurofins Discovery (Cerep) BioPrint Profile Panel
Source text: as §1

[1] = biological target: T14, Xanthine oxidase/ superoxide O2-scavenging (Bos taurus, UniProt P80457); assay: BioPrint Profile Panel; type: biochemical; conditions: Non-Kinase Enzyme
T14 construct: purchased Eurofins Discovery (Cerep) BioPrint Profile Panel
T14 sequence (P80457 whole entry): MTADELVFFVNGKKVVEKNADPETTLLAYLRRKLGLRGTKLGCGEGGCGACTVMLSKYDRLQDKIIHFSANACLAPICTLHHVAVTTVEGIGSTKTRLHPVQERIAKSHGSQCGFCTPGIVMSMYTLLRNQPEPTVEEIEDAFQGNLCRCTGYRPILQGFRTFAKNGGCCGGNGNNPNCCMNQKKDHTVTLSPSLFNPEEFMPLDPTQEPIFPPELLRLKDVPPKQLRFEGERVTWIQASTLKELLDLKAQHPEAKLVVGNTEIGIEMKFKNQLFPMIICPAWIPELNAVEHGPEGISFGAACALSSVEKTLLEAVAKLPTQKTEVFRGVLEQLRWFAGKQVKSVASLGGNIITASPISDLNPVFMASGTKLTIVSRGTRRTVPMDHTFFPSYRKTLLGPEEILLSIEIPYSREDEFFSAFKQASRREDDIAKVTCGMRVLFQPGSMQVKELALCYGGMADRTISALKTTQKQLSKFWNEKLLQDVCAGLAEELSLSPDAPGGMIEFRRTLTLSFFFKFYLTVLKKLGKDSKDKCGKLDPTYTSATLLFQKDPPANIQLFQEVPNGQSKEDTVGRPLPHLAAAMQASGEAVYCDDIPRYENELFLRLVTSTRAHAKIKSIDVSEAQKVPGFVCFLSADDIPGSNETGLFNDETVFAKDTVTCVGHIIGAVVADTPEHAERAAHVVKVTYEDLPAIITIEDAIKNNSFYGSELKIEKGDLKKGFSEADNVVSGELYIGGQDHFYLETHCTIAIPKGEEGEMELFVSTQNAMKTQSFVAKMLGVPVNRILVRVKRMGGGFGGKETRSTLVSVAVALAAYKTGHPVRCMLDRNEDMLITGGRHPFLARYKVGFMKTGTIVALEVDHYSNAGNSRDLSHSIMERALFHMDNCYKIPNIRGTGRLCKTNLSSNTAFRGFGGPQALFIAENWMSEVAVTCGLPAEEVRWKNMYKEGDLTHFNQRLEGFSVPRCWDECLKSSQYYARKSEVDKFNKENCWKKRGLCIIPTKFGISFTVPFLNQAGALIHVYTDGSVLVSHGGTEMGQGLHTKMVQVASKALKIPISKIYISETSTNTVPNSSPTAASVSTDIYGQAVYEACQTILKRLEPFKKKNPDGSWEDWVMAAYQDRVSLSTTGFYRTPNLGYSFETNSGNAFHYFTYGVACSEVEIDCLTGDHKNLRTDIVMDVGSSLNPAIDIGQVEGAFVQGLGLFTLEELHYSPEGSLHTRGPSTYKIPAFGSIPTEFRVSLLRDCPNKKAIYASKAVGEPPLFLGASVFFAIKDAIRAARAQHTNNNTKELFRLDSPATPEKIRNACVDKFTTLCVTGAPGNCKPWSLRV
Source text: as §1

PDE5 = biological target: T15, PDE5 (Homo sapiens, UniProt O76074); assay: BioPrint Profile Panel; type: biochemical; conditions: Non-Kinase Enzyme, read-out: % of specific inhibition
T15 construct: purchased Eurofins Discovery (Cerep) BioPrint Profile Panel
Source text: as §1

CaMK2α = biological target: T16, CaMK2α (Homo sapiens, UniProt Q9UQM7); assay: BioPrint Profile Panel; type: biochemical; conditions: Kinase, read-out: % of specific inhibition
T16 construct: purchased Eurofins Discovery (Cerep) BioPrint Profile Panel
Source text: as §1

COX1 = biological target: T17, COX1 (Homo sapiens, UniProt P23219); assay: BioPrint Profile Panel; type: biochemical; conditions: Non-Kinase Enzyme, read-out: % of specific inhibition
T17 construct: purchased Eurofins Discovery (Cerep) BioPrint Profile Panel
Source text: as §1

PDE2A1 = PDE2A1 (Homo sapiens, UniProt O00408); assay: BioPrint Profile Panel; type: biochemical; conditions: Non-Kinase Enzyme, read-out: % of specific inhibition
Source text: as §1

Fyn kinase = biological target: T18, Fyn kinase (Homo sapiens, UniProt P06241); assay: BioPrint Profile Panel; type: biochemical; conditions: read-out: % of specific inhibition
T18 construct: purchased Eurofins Discovery (Cerep) BioPrint Profile Panel
Source text: as §1

BACE-1 = biological target: T19, BACE-1 (Homo sapiens, UniProt P56817); assay: BioPrint Profile Panel; type: biochemical; conditions: Non-Kinase Enzyme, read-out: % of specific inhibition
T19 construct: purchased Eurofins Discovery (Cerep) BioPrint Profile Panel
T19 sequence (P56817 46-501): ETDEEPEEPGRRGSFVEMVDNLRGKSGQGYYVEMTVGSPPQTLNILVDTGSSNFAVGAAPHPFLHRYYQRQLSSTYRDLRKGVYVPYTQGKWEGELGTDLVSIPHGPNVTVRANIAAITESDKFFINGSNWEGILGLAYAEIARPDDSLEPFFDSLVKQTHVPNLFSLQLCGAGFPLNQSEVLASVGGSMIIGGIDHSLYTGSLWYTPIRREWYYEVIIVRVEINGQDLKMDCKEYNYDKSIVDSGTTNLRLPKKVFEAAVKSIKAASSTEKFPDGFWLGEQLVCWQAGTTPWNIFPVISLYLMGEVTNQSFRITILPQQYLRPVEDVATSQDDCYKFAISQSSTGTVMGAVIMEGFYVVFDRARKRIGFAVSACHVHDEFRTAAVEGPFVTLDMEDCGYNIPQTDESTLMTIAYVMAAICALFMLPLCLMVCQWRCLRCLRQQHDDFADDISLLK
Source text: as §1

Lyn A kinase = biological target: T20, Lyn A kinase (Homo sapiens, UniProt P07948); assay: BioPrint Profile Panel; type: biochemical
T20 construct: purchased Eurofins Discovery (Cerep) BioPrint Profile Panel
T20 sequence (P07948 whole entry): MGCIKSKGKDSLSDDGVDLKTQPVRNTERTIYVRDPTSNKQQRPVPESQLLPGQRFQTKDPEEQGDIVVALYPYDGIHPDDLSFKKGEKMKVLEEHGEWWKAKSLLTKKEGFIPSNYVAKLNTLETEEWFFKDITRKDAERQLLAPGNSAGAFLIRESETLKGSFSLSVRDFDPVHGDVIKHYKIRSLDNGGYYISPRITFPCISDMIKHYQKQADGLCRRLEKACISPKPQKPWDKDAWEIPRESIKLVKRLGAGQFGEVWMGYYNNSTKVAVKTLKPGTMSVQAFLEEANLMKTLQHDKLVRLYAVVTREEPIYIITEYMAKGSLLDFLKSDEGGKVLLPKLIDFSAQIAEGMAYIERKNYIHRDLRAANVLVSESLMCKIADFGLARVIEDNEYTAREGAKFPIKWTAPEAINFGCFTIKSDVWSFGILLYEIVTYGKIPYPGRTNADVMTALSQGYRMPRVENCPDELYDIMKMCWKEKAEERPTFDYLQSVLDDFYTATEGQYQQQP
Source text: as §1

TNF-α = assay: BioPrint Profile Panel; type: binding; conditions: 10 μM; Agonist; Receptor
Source text: as §1

IP (PGI2) = biological target: T21, IP (PGI2) (Homo sapiens, UniProt P43119); assay: BioPrint Profile Panel; type: binding; conditions: Agonist, Receptor, read-out: % of specific inhibition
T21 construct: purchased Eurofins Discovery (Cerep) BioPrint Profile Panel
Source text: as §1

MC4 = biological target: T22, MC4 (Homo sapiens, UniProt P32245); assay: BioPrint Profile Panel; type: binding; conditions: Agonist, Receptor, read-out: % of specific inhibition
T22 construct: purchased Eurofins Discovery (Cerep) BioPrint Profile Panel
T22 sequence (P32245 whole entry): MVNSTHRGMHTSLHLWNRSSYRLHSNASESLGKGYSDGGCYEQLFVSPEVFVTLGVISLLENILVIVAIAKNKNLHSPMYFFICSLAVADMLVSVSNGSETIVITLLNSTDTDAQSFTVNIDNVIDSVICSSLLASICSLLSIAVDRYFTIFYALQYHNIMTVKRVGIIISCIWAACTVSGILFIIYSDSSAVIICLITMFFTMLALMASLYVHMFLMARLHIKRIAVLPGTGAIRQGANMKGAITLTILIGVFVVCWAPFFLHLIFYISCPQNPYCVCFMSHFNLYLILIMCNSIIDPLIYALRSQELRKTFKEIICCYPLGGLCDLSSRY
Source text: as §1

β1 = biological target: T23, β1 (Homo sapiens, UniProt P08588); assay: BioPrint Profile Panel; type: binding; conditions: Agonist, Receptor, read-out: % of specific inhibition
T23 construct: purchased Eurofins Discovery (Cerep) BioPrint Profile Panel
Source text: as §1

B2 = biological target: T24, B2 (Homo sapiens, UniProt P30411); assay: BioPrint Profile Panel; type: binding; conditions: Agonist, Receptor, read-out: % of specific inhibition
T24 construct: purchased Eurofins Discovery (Cerep) BioPrint Profile Panel
T24 sequence (P30411 whole entry): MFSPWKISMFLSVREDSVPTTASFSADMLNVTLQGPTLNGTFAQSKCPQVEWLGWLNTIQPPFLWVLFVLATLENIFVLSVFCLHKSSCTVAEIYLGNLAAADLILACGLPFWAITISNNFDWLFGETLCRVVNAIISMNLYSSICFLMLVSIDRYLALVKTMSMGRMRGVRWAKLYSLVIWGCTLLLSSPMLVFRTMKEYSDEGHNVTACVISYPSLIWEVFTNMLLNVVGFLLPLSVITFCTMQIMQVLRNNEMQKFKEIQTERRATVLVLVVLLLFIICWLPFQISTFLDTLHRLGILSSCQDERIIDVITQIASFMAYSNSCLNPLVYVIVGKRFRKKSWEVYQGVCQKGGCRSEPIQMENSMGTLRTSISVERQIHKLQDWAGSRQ
Source text: as §1

FP = biological target: T25, FP (Homo sapiens, UniProt P43088); assay: BioPrint Profile Panel; type: binding; conditions: Agonist, Receptor, read-out: % of specific inhibition
T25 construct: purchased Eurofins Discovery (Cerep) BioPrint Profile Panel
Source text: as §1

GR = biological target: T26, GR (Homo sapiens, UniProt P04150); assay: BioPrint Profile Panel; type: binding; conditions: Agonist, Receptor, read-out: % of specific inhibition
T26 construct: purchased Eurofins Discovery (Cerep) BioPrint Profile Panel
Source text: as §1

AMPA = assay: BioPrint Profile Panel; type: binding; conditions: 10 μM; Agonist; Ion Channel
Source text: as §1

D1 = biological target: T27, D1 (Homo sapiens, UniProt P21728); assay: BioPrint Profile Panel; type: binding; conditions: Antagonist, Receptor, read-out: % of specific inhibition
T27 construct: purchased Eurofins Discovery (Cerep) BioPrint Profile Panel
Source text: as §1

5-HT4e = biological target: T28, 5-HT4e (Homo sapiens, UniProt Q13639); assay: BioPrint Profile Panel; type: binding; conditions: Antagonist, Receptor, read-out: % of specific inhibition
T28 construct: purchased Eurofins Discovery (Cerep) BioPrint Profile Panel
Source text: as §1

5-HT1B = biological target: T29, 5-HT1B (Rattus norvegicus, UniProt P28564); assay: BioPrint Profile Panel; type: binding; conditions: Antagonist, Receptor, read-out: % of specific inhibition
T29 construct: purchased Eurofins Discovery (Cerep) BioPrint Profile Panel
Source text: as §1

choline transporter = biological target: T30, choline transporter (Homo sapiens, UniProt Q9GZV3); assay: BioPrint Profile Panel; type: binding; conditions: Antagonist, read-out: % of specific inhibition
T30 construct: purchased Eurofins Discovery (Cerep) BioPrint Profile Panel
Source text: as §1

M3 = biological target: T31, M3 (Homo sapiens, UniProt P20309); assay: BioPrint Profile Panel; type: binding; conditions: Antagonist, Receptor, read-out: % of specific inhibition
T31 construct: purchased Eurofins Discovery (Cerep) BioPrint Profile Panel
Source text: as §1

α1B = biological target: T32, α1B (Homo sapiens, UniProt P35368); assay: BioPrint Profile Panel; type: binding; conditions: Antagonist, Receptor, read-out: % of specific inhibition
T32 construct: purchased Eurofins Discovery (Cerep) BioPrint Profile Panel
Source text: as §1

dopamine transporter = biological target: T33, dopamine transporter (Homo sapiens, UniProt Q01959); assay: BioPrint Profile Panel; type: binding; conditions: Antagonist, read-out: % of specific inhibition
T33 construct: purchased Eurofins Discovery (Cerep) BioPrint Profile Panel
Source text: as §1

GABAA1 (h) (α1, β2, γ2) = biological target: T34, GABAA1 (h) (α1, β2, γ2) (Homo sapiens, UniProt P14867+P47870); assay: BioPrint Profile Panel; type: binding; conditions: Agonist, Receptor, read-out: % of specific inhibition
T34 construct: purchased Eurofins Discovery (Cerep) BioPrint Profile Panel
Source text: as §1

GABA transporter = assay: BioPrint Profile Panel; type: binding; conditions: 10 μM, Antagonist
Source text: as §1

Cl- channel = assay: BioPrint Profile Panel; type: binding; conditions: 10 μM; Antagonist; Ion Channel
Source text: as §1

5-HT3 = biological target: T35, 5-HT3 (Homo sapiens, UniProt P46098); assay: BioPrint Profile Panel; type: binding; conditions: Antagonist, Ion Channel, read-out: % of specific inhibition
T35 construct: purchased Eurofins Discovery (Cerep) BioPrint Profile Panel
Source text: as §1

[2] = read-out: % Inhibition of Control Specific Binding

Structure (SMILES): O=c1cc(-c2ccccc2)oc2c(O)c(O)ccc12 [7,8-DHF, 7,8-dihydroxyflavone]
- microsomal CLint at 1 μM (in vitro): 52.2 µL/min/mg
- % Inhibition of Control Specific Binding (MMP-2; 10 μM): 56.5%
- inhibition at 10 µM (MMP-2; [2]): 56%
- inhibition at 10 µM (MMP-1): 10%
- inhibition at 10 µM (ACE-2): -8%
- % Inhibition of Control Specific Binding (COX2; 10 μM): 81.6%
- inhibition at 10 µM (COX2; [2]): 82%
- inhibition at 10 µM (IRK): 12%
- inhibition at 10 µM (ACE): 5%
- inhibition at 10 µM (ERK2): -23%
- % of specific inhibition (PDE6): 30%
- inhibition at 10 µM (CDK2): 0%
- inhibition at 10 µM (Abl kinase): 25%
- inhibition at 10 µM (p38α kinase): -50%
- inhibition at 10 µM (PDE4D2): 38%
- inhibition at 10 µM (FLT-1 kinase): 17%
- inhibition at 10 µM (acetylcholinesterase): 5%
- % Inhibition of Control Specific Binding ([1]; 10 μM): 91.5%
- inhibition at 10 µM [1, 2]: 92%
- inhibition at 10 µM (PDE5): 48%
- inhibition at 10 µM (CaMK2α): -20%
- inhibition at 10 µM (COX1): 49%
- inhibition at 10 µM (PDE2A1): 5%
- inhibition at 10 µM (Fyn kinase): 21%
- inhibition at 10 µM (BACE-1): 15%
- % Inhibition of Control Specific Binding (Lyn A kinase; 10 μM): 52.6%
- inhibition at 10 µM (Lyn A kinase; [2]): 53%
- % of specific inhibition (TNF-α): 2%
- inhibition at 10 µM (IP (PGI2)): 17%
- inhibition at 10 µM (MC4): -5%
- inhibition at 10 µM (β1): -5%
- inhibition at 10 µM (B2): -6%
- inhibition at 10 µM (FP): 6%
- inhibition at 10 µM (GR): -1%
- % of specific inhibition (AMPA): 7%
- inhibition at 10 µM (D1): -4%
- inhibition at 10 µM (5-HT4e): -11%
- inhibition at 10 µM (5-HT1B): 3%
- inhibition at 10 µM (choline transporter): 5%
- inhibition at 10 µM (M3): -7%
- inhibition at 10 µM (α1B): -3%
- inhibition at 10 µM (dopamine transporter): 4%
- inhibition at 10 µM (GABAA1 (h) (α1, β2, γ2)): 12%
- % of specific inhibition (GABA transporter): -2%
- % of specific inhibition (Cl- channel): -7%
- inhibition at 10 µM (5-HT3): -2%
